According to patent US8236818B2, “Substituted imidazopyridine derivatives as melanocortin-4 receptor antagonists” (Santhera Pharmaceuticals (Schweiz) AG, priority 2007, dated 2012):

Columns and labels:
melanocortin-4 receptor [1] = target: T1, melanocortin-4 receptor (Homo sapiens, UniProt P32245); experiment: Membrane binding assay (fluorescence polarization, competition with fluorescence labeled NDP-alpha-MSH); conditions: read-out: hMC-4R binding assay IC50/μM
T1 construct: expressed in transfected cells; host or cells: HEK293 cells (membrane preparations)
T1 sequence (P32245 whole entry): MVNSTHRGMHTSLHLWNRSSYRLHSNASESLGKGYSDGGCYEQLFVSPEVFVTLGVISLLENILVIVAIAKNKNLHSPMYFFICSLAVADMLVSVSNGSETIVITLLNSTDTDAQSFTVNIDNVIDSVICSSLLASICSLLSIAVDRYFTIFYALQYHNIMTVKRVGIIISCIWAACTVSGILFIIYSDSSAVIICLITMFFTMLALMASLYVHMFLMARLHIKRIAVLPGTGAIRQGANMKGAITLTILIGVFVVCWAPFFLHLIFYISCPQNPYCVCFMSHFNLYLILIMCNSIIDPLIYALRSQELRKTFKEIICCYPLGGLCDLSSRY

melanocortin-4 receptor [2] = target: T1, melanocortin-4 receptor; experiment: Functional assay (cAMP fluorescence polarization, membrane based, agonistic activity); assay type: biochemical; conditions: for Emax: 2 h, read-out: % activation functional assay; for EC50: agonistic activity, cAMP, HEK293 membrane preparations, read-out: hMC-4R functional assay EC50/μM

`CC(C)CCN(CCC(C)C)C(=O)c1ccc2nc(-c3ccc4c(c3)OCCO4)c(CCCN)n2c1` [Example 1] was tested. Which IC50 (melanocortin-4 receptor [1]) did it give?
Its IC50 is 0.1 to 1 µM.

What about the Emax (melanocortin-4 receptor [2]) of the same compound?
Its Emax is 0%.

`CC(C)CCN(CCC(C)C)C(=O)c1ccc2nc(-c3ccc4c(c3)OCCO4)c(CCCN3CCCCC3)n2c1` [Example 2] was tested. Which IC50 (melanocortin-4 receptor [1]) did it give?
Its IC50 is under 0.1 µM.

What about the Emax (melanocortin-4 receptor [2]) of the same compound?
The Emax was 0%.

Which results are given for `COc1ccc(-c2nc3ccc(C(=O)N(CCC(C)C)CCC(C)C)cn3c2CCCN)cc1` [Example 3]?
IC50 (melanocortin-4 receptor [1]): 0.1 to 1 µM; Emax (melanocortin-4 receptor [2]): 0%

What does the source list for `CC(C)CCN(CCC(C)C)C(=O)c1ccc2nc(-c3ccc(Cl)cc3)c(CCCN)n2c1` [Example 4]?
IC50 (melanocortin-4 receptor [1]): 0.1 to 1 µM; Emax (melanocortin-4 receptor [2]): 0%

Which IC50 (melanocortin-4 receptor [1]) does the source give for `COc1ccc(-c2nc3ccc(C(=O)N(CCC(C)C)CCC(C)C)cn3c2CCCN(C)C)cc1` [Example 5] here?
The IC50 was 0.1 to 1 µM.

And the Emax (melanocortin-4 receptor [2])?
The Emax was 0%.

What does the source list for `COc1ccc(-c2nc3ccc(C(=O)N(CCC(C)C)CCC(C)C)cn3c2CCCN2CCCC2)cc1` [Example 6]?
IC50 (melanocortin-4 receptor [1]): < 0.1 µM; Emax (melanocortin-4 receptor [2]): 0%

What does the source list for `COc1cccc(-c2nc3ccc(C(=O)N(CCC(C)C)CCC(C)C)cn3c2CCCNC(C)C)c1` [Example 7]?
IC50 (melanocortin-4 receptor [1]): 0.1 to 1 µM; Emax (melanocortin-4 receptor [2]): 0%

`CCN(CC)CCCc1c(-c2cccc(OC)c2)nc2ccc(C(=O)N(CCC(C)C)CCC(C)C)cn12` [Example 8] was tested. Which IC50 (melanocortin-4 receptor [1]) did it give?
The IC50 was under 0.1 µM.

What about the Emax (melanocortin-4 receptor [2]) of the same compound?
Its Emax is 0%.

`COc1cccc(-c2nc3ccc(C(=O)N(CCC(C)C)CCC(C)C)cn3c2CCCN2CCCC2)c1` [Example 9] was tested. Which IC50 (melanocortin-4 receptor [1]) did it give?
Its IC50 is under 0.1 µM.

What about the Emax (melanocortin-4 receptor [2]) of the same compound?
Its Emax is 0%.

Which IC50 (melanocortin-4 receptor [1]) does the source give for `COc1cccc(-c2nc3ccc(C(=O)N(CCC(C)C)CCC(C)C)cn3c2CCCNCC2CC2)c1` [Example 10] here?
The IC50 was over 1 µM.

And the Emax (melanocortin-4 receptor [2])?
The Emax was 0%.

Which IC50 (melanocortin-4 receptor [1]) does the source give for `COc1cccc(-c2nc3ccc(C(=O)N(CCC(C)C)CCC(C)C)cn3c2CCCN2CCC2)c1` [Example 11] here?
Its IC50 is under 0.1 µM.

What about the Emax (melanocortin-4 receptor [2]) of the same compound?
Its Emax is 0%.

For `COc1cccc(-c2nc3ccc(C(=O)N(CCC(C)C)CCC(C)C)cn3c2CCCN2CCOCC2)c1` [Example 12], which IC50 (melanocortin-4 receptor [1]) is on record?
The IC50 was under 0.1 µM.

And the Emax (melanocortin-4 receptor [2])?
The Emax was 0%.

For `COCC(C)NCCCc1c(-c2cccc(OC)c2)nc2ccc(C(=O)N(CCC(C)C)CCC(C)C)cn12` (stereo not drawn) [Example 13], which IC50 (melanocortin-4 receptor [1]) is on record?
The IC50 was over 1 µM.

What about the Emax (melanocortin-4 receptor [2]) of the same compound?
The Emax was 0%.

Which IC50 (melanocortin-4 receptor [1]) does the source give for `COc1cccc(-c2nc3ccc(C(=O)N(CCC(C)C)CCC(C)C)cn3c2CCCN2CC[C@H](F)C2)c1` [Example 14] here?
Its IC50 is under 0.1 µM.

What about the Emax (melanocortin-4 receptor [2]) of the same compound?
The Emax was 0%.

What does the source list for `COc1cccc(-c2nc3ccc(C(=O)N(CCC(C)C)CCC(C)C)cn3c2CCCN2CCN(C)CC2)c1` [Example 15]?
IC50 (melanocortin-4 receptor [1]): 0.1 to 1 µM; Emax (melanocortin-4 receptor [2]): 0%

For `COc1cccc(-c2nc3ccc(C(=O)N(CCC(C)C)CCC(C)C)cn3c2CCCN2CCOC[C@@H]2C)c1` [Example 16], which IC50 (melanocortin-4 receptor [1]) is on record?
Its IC50 is under 0.1 µM.

What about the Emax (melanocortin-4 receptor [2]) of the same compound?
The Emax was 0%.

How did the IC50 (melanocortin-4 receptor [1]) turn out when `CC(C)CCN(CCC(C)C)C(=O)c1ccc2nc(-c3ccc(C#N)cc3)c(CCCN3CCCC3)n2c1` [Example 17] was run?
Its IC50 is under 0.1 µM.

And the Emax (melanocortin-4 receptor [2])?
Its Emax is 0%.

Which IC50 (melanocortin-4 receptor [1]) does the source give for `CC(C)CCN(CCC(C)C)C(=O)c1ccc2nc(-c3ccc(C#N)cc3)c(CCCN(C)C)n2c1` [Example 18] here?
Its IC50 is 0.1 to 1 µM.

What about the Emax (melanocortin-4 receptor [2]) of the same compound?
The Emax was 0%.

Which results are given for `CC(C)CCN(CCC(C)C)C(=O)c1ccc2nc(-c3ccc(Cl)cc3)c(CCCN3CCCC3)n2c1` [Example 19]?
IC50 (melanocortin-4 receptor [1]): < 0.1 µM; Emax (melanocortin-4 receptor [2]): 0%

What does the source list for `CC(C)CCN(CCC(C)C)C(=O)c1ccc2nc(-c3ccc(Cl)cc3)c(CCCN(C)C)n2c1` [Example 20]?
IC50 (melanocortin-4 receptor [1]): 0.1 to 1 µM; Emax (melanocortin-4 receptor [2]): -18%; EC50 (melanocortin-4 receptor [2]): < 0.1 µM

What does the source list for `COc1cccc(-c2nc3ccc(C(=O)N(CCC(C)C)CCC(C)C)cn3c2CCC(C)N2CCCC2)c1` (stereo not drawn) [Example 21]?
IC50 (melanocortin-4 receptor [1]): < 0.1 µM; Emax (melanocortin-4 receptor [2]): 0%

Which results are given for `CC(C)CCN(CCC(C)C)C(=O)c1ccc2nc(-c3ccc(Cl)cc3)c(CCCCN3CCCC3)n2c1` [Example 22]?
IC50 (melanocortin-4 receptor [1]): 0.1 to 1 µM; Emax (melanocortin-4 receptor [2]): 0%

How did the IC50 (melanocortin-4 receptor [1]) turn out when `CCN(C)CCCCc1c(-c2ccc(Cl)cc2)nc2ccc(C(=O)N(CCC(C)C)CCC(C)C)cn12` [Example 23] was run?
The IC50 was 0.1 to 1 µM.

What about the Emax (melanocortin-4 receptor [2]) of the same compound?
Its Emax is 0%.

What does the source list for `CC(C)CCN(CCC(C)C)C(=O)c1ccc2nc(-c3ccc(Cl)cc3)c(CCCCN(C)C)n2c1` [Example 24]?
IC50 (melanocortin-4 receptor [1]): > 1 µM; Emax (melanocortin-4 receptor [2]): 0%

What does the source list for `CC(C)CCN(CCC(C)C)C(=O)c1ccc2nc(-c3ccc(C(N)=O)cc3)c(CCCN3CCCC3)n2c1` [Example 25]?
IC50 (melanocortin-4 receptor [1]): < 0.1 µM; Emax (melanocortin-4 receptor [2]): 0%

What does the source list for `CC(C)CCN(CCC(C)C)C(=O)c1ccc2nc(-c3ccc(C#N)cc3)c(CCN3CCCC3)n2c1` [Example 26]?
IC50 (melanocortin-4 receptor [1]): 0.1 to 1 µM; Emax (melanocortin-4 receptor [2]): 0%

With `CC(C)CCN(CCC(C)C)C(=O)c1ccc2nc(-c3ccc(C#N)cc3)c(CCN3CCN(C)CC3)n2c1` [Example 27] as the compound, how does the IC50 (melanocortin-4 receptor [1]) read?
The IC50 was over 1 µM.

What about the Emax (melanocortin-4 receptor [2]) of the same compound?
Its Emax is 0%.

Which results are given for `COc1cccc(-c2nc3ccc(C(=O)N(CCC(C)C)CCC(C)C)cn3c2CCCN(C)C)c1` [Example 28]?
IC50 (melanocortin-4 receptor [1]): 0.1 to 1 µM; Emax (melanocortin-4 receptor [2]): 0%

With `CCN(C)CCCc1c(-c2cccc(OC)c2)nc2ccc(C(=O)N(CCC(C)C)CCC(C)C)cn12` [Example 29] as the compound, how does the IC50 (melanocortin-4 receptor [1]) read?
Its IC50 is under 0.1 µM.

And the Emax (melanocortin-4 receptor [2])?
Its Emax is 0%.

How did the IC50 (melanocortin-4 receptor [1]) turn out when `COc1cccc(-c2nc3ccc(C(=O)N(CCC(C)C)CCC(C)C)cn3c2CCCN2CCC(F)CC2)c1` [Example 30] was run?
The IC50 was under 0.1 µM.

What about the Emax (melanocortin-4 receptor [2]) of the same compound?
The Emax was 0%.

Which IC50 (melanocortin-4 receptor [1]) does the source give for `COc1cccc(-c2nc3ccc(C(=O)N(CCC(C)C)CCC(C)C)cn3c2CCCN2CCCCC2)c1` [Example 31] here?
Its IC50 is under 0.1 µM.

And the Emax (melanocortin-4 receptor [2])?
Its Emax is 0%.

What does the source list for `COc1cccc(-c2nc3ccc(C(=O)N(CCC(C)C)CCC(C)C)cn3c2CCCN2CC[C@@H](F)C2)c1` [Example 32]?
IC50 (melanocortin-4 receptor [1]): 0.1 to 1 µM; Emax (melanocortin-4 receptor [2]): 0%

Which IC50 (melanocortin-4 receptor [1]) does the source give for `COc1cccc(-c2nc3ccc(C(=O)N(CCC(C)C)CCC(C)C)cn3c2CCCN2CC[C@H](O)C2)c1` [Example 33] here?
Its IC50 is under 0.1 µM.

And the Emax (melanocortin-4 receptor [2])?
Its Emax is -22%.

And the EC50 (melanocortin-4 receptor [2])?
Its EC50 is under 0.1 µM.

Which results are given for `COc1cccc(-c2nc3ccc(C(=O)N(CCC(C)C)CCC(C)C)cn3c2CCCN2CC[C@@H](O)C2)c1` [Example 34]?
IC50 (melanocortin-4 receptor [1]): < 0.1 µM; Emax (melanocortin-4 receptor [2]): -18%; EC50 (melanocortin-4 receptor [2]): < 0.1 µM

With `CC(C)CCN(CCC(C)C)C(=O)c1ccc2nc(-c3ccc(S(C)(=O)=O)cc3)c(CCCN3CCCC3)n2c1` [Example 35] as the compound, how does the IC50 (melanocortin-4 receptor [1]) read?
Its IC50 is under 0.1 µM.

And the Emax (melanocortin-4 receptor [2])?
Its Emax is 0%.

Which results are given for `COc1cccc(-c2nc3ccc(C(=O)N(CCC(C)C)CCC(C)C)cn3c2CCCN2CCNCC2)c1` [Example 36]?
IC50 (melanocortin-4 receptor [1]): > 1 µM; Emax (melanocortin-4 receptor [2]): 0%

With `COc1cccc(-c2nc3ccc(C(=O)N(CCC(C)C)CCC(C)C)cn3c2CCCN2CC(O)C2)c1` [Example 37] as the compound, how does the IC50 (melanocortin-4 receptor [1]) read?
The IC50 was under 0.1 µM.

And the Emax (melanocortin-4 receptor [2])?
Its Emax is 0%.

Which IC50 (melanocortin-4 receptor [1]) does the source give for `C#CCN(C)CCCc1c(-c2cccc(OC)c2)nc2ccc(C(=O)N(CCC(C)C)CCC(C)C)cn12` [Example 38] here?
Its IC50 is over 1 µM.

And the Emax (melanocortin-4 receptor [2])?
The Emax was 0%.

How did the IC50 (melanocortin-4 receptor [1]) turn out when `CC(C)CCN(CCC(C)C)C(=O)c1ccc2nc(-c3ccc4c(c3)OCO4)c(CCCN3CCCC3)n2c1` [Example 39] was run?
The IC50 was under 0.1 µM.

What about the Emax (melanocortin-4 receptor [2]) of the same compound?
The Emax was 0%.

Which IC50 (melanocortin-4 receptor [1]) does the source give for `Cc1ccnc(-c2nc3ccc(C(=O)N(CCC(C)C)CCC(C)C)cn3c2CCCN2CCCC2)c1` [Example 40] here?
The IC50 was 0.1 to 1 µM.

What about the Emax (melanocortin-4 receptor [2]) of the same compound?
The Emax was 0%.

Which results are given for `Cc1cccc(-c2nc3ccc(C(=O)N(CCC(C)C)CCC(C)C)cn3c2CCCN2CCCC2)n1` [Example 41]?
IC50 (melanocortin-4 receptor [1]): < 0.1 µM; Emax (melanocortin-4 receptor [2]): 0%

Which results are given for `CC(C)CCN(CCC(C)C)C(=O)c1ccc2nc(-c3ccc(Cl)cn3)c(CCCN3CCCC3)n2c1` [Example 42]?
IC50 (melanocortin-4 receptor [1]): < 0.1 µM; Emax (melanocortin-4 receptor [2]): 0%

Which results are given for `CC(C)CCN(CCC(C)C)C(=O)c1ccc2nc(-c3ccc4c(c3)NC(=O)CO4)c(CCCN3CCCC3)n2c1` [Example 43]?
IC50 (melanocortin-4 receptor [1]): < 0.1 µM; Emax (melanocortin-4 receptor [2]): 0%

How did the IC50 (melanocortin-4 receptor [1]) turn out when `CC(C)CCN(CCC(C)C)C(=O)c1ccc2nc(-c3cc(O)ccn3)c(CCCN3CCCC3)n2c1` [Example 44] was run?
Its IC50 is under 0.1 µM.

And the Emax (melanocortin-4 receptor [2])?
The Emax was 0%.

What does the source list for `CC(C)CCN(CCC(C)C)C(=O)c1ccc2nc(-c3ccc4c(c3)CCC(=O)N4)c(CCCN3CCCC3)n2c1` [Example 45]?
IC50 (melanocortin-4 receptor [1]): < 0.1 µM; Emax (melanocortin-4 receptor [2]): 0%
